According to patent US9993426B2, “Bisacodyl compositions and delivery apparatus” (C.B. FLEET COMPANY INCORPORATED, priority 2015, dated 2018):

Experiments:
[1] = Water solubility (qualitative statement); assay type: physicochemical
From the text: Ready-to-use bisacodyl preparations have a short shelf-life (i.e., less than 18 months), can experience settling, and result in waste (e.g., a significant portion of the drug remains in the package). There is a need in the art for a ready-to-use bisacodyl preparation with a longer shelf life and less wasteful apparatus for delivery into the colon.

[2] = From the text: The molecular formula for bisacodyl is (C22H19NO4), and the molecular weight is 361.39 gram/mole.
[3] = cited from earlier work

Row | water solubility [1] | aqueous molar solubility [2] [µM] | SMILES | time to have an effect ([3]; administered orally, 5-10 milligrams) [h] | time in which usually effective ([3]; administered rectally in suppository form, 10 mg) [min]
1 | poor water solubility |  | Oc1ccc(C(c2ccc(O)cc2)c2ccccn2)cc1 [desacetyl bisacodyl] |  | 
2 | poor water solubility | 3.4 | CC(=O)Oc1ccc(C(c2ccc(OC(C)=O)cc2)c2ccccn2)cc1 [Bisacodyl, 4,4′-(pyridin-2-ylmethylene)bis(4,1-phenylene) diacetate] | 6 to 12 | 15 to 60
